Values joined by “and” are separate entries in the source; they are usually repeats but may differ in a detail not shown here. Equal entries are not always repeated. Inconclusive results and toxic doses are left out. No stated cut-off is given here; in the data, active means T/C of 150% or more; inactive means T/C below 125%.
System: L1210 leukemia ip in BDF1 mice, survival T/C
Assay: NCI In Vivo Anticancer Drug Screen. Data for tumor model L1210 Leukemia (intraperitoneal) in B6D2F1 (BDF1) mice
Settings: endpoint: mean survival time, higher = longer survival
Outline: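 Read-out is survival time, reported as the treated-group measurement over the vehicle-control measurement.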

[1] = dose: 100.0 mg/kg/injection, schedule: Q01DX009 (ip), vehicle: Klucel (hydroxypropylcellulose) (HPC)
[2] = dose: 100.0 mg/kg/injection, schedule: Q04DX002 (ip), vehicle: Klucel (hydroxypropylcellulose) (HPC)
[3] = dose: 200.0 mg/kg/injection, schedule: Q01DX009 (ip), vehicle: Klucel (hydroxypropylcellulose) (HPC)
[4] = dose: 200.0 mg/kg/injection, schedule: Q04DX002 (ip), vehicle: Klucel (hydroxypropylcellulose) (HPC)
[5] = dose: 400.0 mg/kg/injection, schedule: Q04DX002 (ip), vehicle: Klucel (hydroxypropylcellulose) (HPC)
[6] = dose: 100.0 mg/kg/injection, schedule: Q01DX001 (ip), vehicle: carboxymethylcellulose (CMC)
[7] = dose: 50.0 mg/kg/injection, schedule: Q04DX003 (ip), vehicle: saline
[8] = dose: 400.0 mg/kg/injection, schedule: Q01DX009 (ip), vehicle: Klucel (hydroxypropylcellulose) (HPC)
[9] = dose: 100.0 mg/kg/injection, schedule: Q04DX003 (ip), vehicle: saline with Tween-80
[10] = dose: 200.0 mg/kg/injection, schedule: Q04DX003 (ip), vehicle: saline with Tween-80
[11] = dose: 400.0 mg/kg/injection, schedule: Q04DX003 (ip), vehicle: saline with Tween-80
[12] = dose: 100.0 mg/kg/injection, schedule: Q01DX009 (ip), vehicle: saline with Tween-80
[13] = dose: 200.0 mg/kg/injection, schedule: Q01DX009 (ip), vehicle: saline with Tween-80
[14] = dose: 400.0 mg/kg/injection, schedule: Q01DX009 (ip), vehicle: saline with Tween-80
[15] = dose: 100.0 mg/kg/injection, schedule: Q04DX003 (ip), vehicle: saline

Measured: T/C

N#C/C(=N\N=Nc1ccccc1)c1cccc2ccccc12
inactive: dose: 100.0 mg/kg/injection, schedule: Q01DX009 (ip), vehicle: gum acacia 94 % of control | dose: 200.0 mg/kg/injection, schedule: Q01DX009 (ip), vehicle: gum acacia 91 % of control

COc1ccc(/C=C(\C(=O)O)c2cccc3ccccc23)cc1
inactive: [1] 91 % of control | [2] 100 % of control | [3] 107 % of control | [4] 86 % of control | [5] 104 % of control

COc1cc(Oc2ccc(OC)c(OC)c2)c(C=O)cc1Br
inactive: dose: 100.0 mg/kg/injection, schedule: Q04DX003 (ip), vehicle: acetone 96 % of control | dose: 200.0 mg/kg/injection, schedule: Q04DX003 (ip), vehicle: acetone 97 % of control | dose: 400.0 mg/kg/injection, schedule: Q04DX003 (ip), vehicle: acetone 97 % of control

O=C(O)CNCCN1CC(=O)N(Cc2ccccc2)C1=S
inactive: [6] 100 % of control | dose: 100.0 mg/kg/injection, schedule: Q01DX009 (ip), vehicle: carboxymethylcellulose (CMC) 104 % of control | dose: 100.0 mg/kg/injection, schedule: Q04DX002 (ip), vehicle: carboxymethylcellulose (CMC) 94 % of control and 103 % of control | dose: 100.0 mg/kg/injection, schedule: Q04DX003 (ip), vehicle: carboxymethylcellulose (CMC) 100 % of control | dose: 200.0 mg/kg/injection, schedule: Q01DX001 (ip), vehicle: carboxymethylcellulose (CMC) 103 % of control | dose: 200.0 mg/kg/injection, schedule: Q01DX009 (ip), vehicle: carboxymethylcellulose (CMC) 93 % of control and 101 % of control | dose: 200.0 mg/kg/injection, schedule: Q04DX002 (ip), vehicle: carboxymethylcellulose (CMC) 103 % of control and 88 % of control | dose: 200.0 mg/kg/injection, schedule: Q04DX003 (ip), vehicle: carboxymethylcellulose (CMC) 98 % of control | dose: 400.0 mg/kg/injection, schedule: Q01DX001 (ip), vehicle: carboxymethylcellulose (CMC) 101 % of control | dose: 400.0 mg/kg/injection, schedule: Q01DX009 (ip), vehicle: carboxymethylcellulose (CMC) 96 % of control | dose: 400.0 mg/kg/injection, schedule: Q04DX002 (ip), vehicle: carboxymethylcellulose (CMC) 98 % of control and 103 % of control

O=Cc1ccc2c(c1)c1ccccc1n2C1OC(CO)C(O)C(O)C1O (centres undefined)
inactive: dose: 60.0 mg/kg/injection, schedule: Q04DX002 (ip), vehicle: DMSO 102 % of control | dose: 120.0 mg/kg/injection, schedule: Q04DX002 (ip), vehicle: DMSO 97 % of control

ClC(Cl)c1nc2ccccc2[nH]1
inactive: dose: 25.0 mg/kg/injection, schedule: Q01DX001 (ip), vehicle: Klucel (hydroxypropylcellulose) (HPC) 94 % of control | [7] 97 % of control

CC(C)(C)c1cccc(S(=O)(=O)Oc2ccccc2[N+](=O)[O-])c1
inactive: [1] 103 % of control | [3] 93 % of control | [8] 95 % of control

Cc1cnc(N)c([N+](=O)[O-])c1
inactive: dose: 100.0 mg/kg/injection, schedule: Q01DX005 (ip), vehicle: Klucel (hydroxypropylcellulose) (HPC) 94 % of control | [1] 97 % of control | [2] 96 % of control | dose: 200.0 mg/kg/injection, schedule: Q01DX005 (ip), vehicle: Klucel (hydroxypropylcellulose) (HPC) 94 % of control | [3] 97 % of control | [4] 100 % of control | dose: 400.0 mg/kg/injection, schedule: Q01DX005 (ip), vehicle: Klucel (hydroxypropylcellulose) (HPC) 94 % of control | [8] 91 % of control | [5] 93 % of control

Cc1ccc(S(=O)(=O)OC2CCC(C(C)(C)C)C(Cl)C2)cc1 (centres undefined)
inactive: dose: 100.0 mg/kg/injection, schedule: Q01DX001 (ip), vehicle: Klucel (hydroxypropylcellulose) (HPC) 103 % of control | dose: 200.0 mg/kg/injection, schedule: Q01DX001 (ip), vehicle: Klucel (hydroxypropylcellulose) (HPC) 87 % of control | dose: 400.0 mg/kg/injection, schedule: Q01DX001 (ip), vehicle: Klucel (hydroxypropylcellulose) (HPC) 94 % of control

CN(C)C(=C1C=CC=C1)N(C)C
inactive: dose: 20.0 mg/kg/injection, schedule: Q04DX003 (ip), vehicle: saline 101 % of control | dose: 40.0 mg/kg/injection, schedule: Q04DX003 (ip), vehicle: saline 96 % of control | dose: 80.0 mg/kg/injection, schedule: Q04DX003 (ip), vehicle: saline 92 % of control

ClC1(Cl)C2CCCOC21 (centres undefined)
inactive: [1] 97 % of control | [3] 100 % of control | [8] 98 % of control

CC1(C(Cl)(Cl)Cl)C=CC(=NOCC(=O)O)C=C1 (centres undefined)
inactive: [2] 98 % of control | [4] 95 % of control | [5] 98 % of control

O=c1c2ccccc2c(=O)c2c1ccc1[nH]c3ccccc3n(-c3ccccc3)c12
inactive: [9] 88 % of control | [10] 89 % of control | [11] 94 % of control

O=C(Cl)c1cccc2c1sc1ccccc12
inactive: [12] 102 % of control | [9] 97 % of control | [13] 102 % of control | [10] 98 % of control | [14] 100 % of control | [11] 98 % of control

CC1CN=C(CCc2ccc(NC(=O)c3ccc(C(=O)Nc4ccc(CCC5=NCC(C)N5)cc4)cc3)cc2)N1 (centres undefined)
inactive: dose: 240.0 mg/kg/injection, schedule: Q01DX Z (ip), vehicle: saline 97 % of control | dose: 480.0 mg/kg/injection, schedule: Q01DX Z (ip), vehicle: saline 92 % of control

CS(=O)(=O)OCCCN(CCCOS(C)(=O)=O)c1ccc(C=Nc2ccc(-c3csc(COc4ccc(Cl)cc4)n3)cc2)cc1
inactive: [12] 97 % of control | [13] 94 % of control | [14] 94 % of control

CCC(C)CNC(C)=O (centres undefined)
inactive: [15] 109 % of control | dose: 200.0 mg/kg/injection, schedule: Q04DX003 (ip), vehicle: saline 106 % of control | dose: 400.0 mg/kg/injection, schedule: Q04DX003 (ip), vehicle: saline 109 % of control

CC(C)(C)C1CCC(N=C(N)CSS(=O)(=O)O)CC1 (centres undefined)
inactive: dose: 12.5 mg/kg/injection, schedule: Q04DX002 (ip), vehicle: Klucel (hydroxypropylcellulose) (HPC) 97 % of control | dose: 25.0 mg/kg/injection, schedule: Q04DX002 (ip), vehicle: Klucel (hydroxypropylcellulose) (HPC) 95 % of control

N#CC(C#N)=Cc1cccnc1
inactive: dose: 12.5 mg/kg/injection, schedule: Q04DX003 (ip), vehicle: Klucel (hydroxypropylcellulose) (HPC) 98 % of control | dose: 25.0 mg/kg/injection, schedule: Q04DX003 (ip), vehicle: Klucel (hydroxypropylcellulose) (HPC) 100 % of control | dose: 50.0 mg/kg/injection, schedule: Q01DX001 (ip), vehicle: carboxymethylcellulose (CMC) 101 % of control | dose: 50.0 mg/kg/injection, schedule: Q04DX003 (ip), vehicle: Klucel (hydroxypropylcellulose) (HPC) 93 % of control and 104 % of control | [6] 98 % of control

COc1c(C(=O)Nc2ccc(C3=NCCN3)cc2)cccc1C(=O)Nc1ccc(C2=NCCN2)cc1
inactive: dose: 15.0 mg/kg/injection, schedule: Q01DX Z (ip), vehicle: saline 95 % of control | dose: 30.0 mg/kg/injection, schedule: Q01DX Z (ip), vehicle: saline 101 % of control

CCOC(=O)c1ccc(NC(=O)Oc2ccc(C(=O)OC)cc2)cc1
inactive: [1] 102 % of control | [3] 95 % of control | [8] 100 % of control

N#CCCn1cnc2c(=S)nc[nH]c21
inactive: dose: 2.0 mg/kg/injection, schedule: Q01DX Z (ip), vehicle: other 97 % of control | dose: 4.0 mg/kg/injection, schedule: Q01DX Z (ip), vehicle: other 97 % of control and 100 % of control | dose: 8.0 mg/kg/injection, schedule: Q01DX Z (ip), vehicle: other 100 % of control and 106 % of control | dose: 16.0 mg/kg/injection, schedule: Q01DX Z (ip), vehicle: other 101 % of control and 102 % of control | dose: 32.0 mg/kg/injection, schedule: Q01DX Z (ip), vehicle: other 96 % of control and 98 % of control

CCc1ccc(NC2=NCCO2)cc1
inactive: dose: 12.5 mg/kg/injection, schedule: Q04DX003 (ip), vehicle: saline 112 % of control | dose: 25.0 mg/kg/injection, schedule: Q01DX009 (ip), vehicle: Klucel (hydroxypropylcellulose) (HPC) 100 % of control | dose: 25.0 mg/kg/injection, schedule: Q04DX003 (ip), vehicle: saline 114 % of control | dose: 50.0 mg/kg/injection, schedule: Q01DX009 (ip), vehicle: Klucel (hydroxypropylcellulose) (HPC) 95 % of control | [7] 101 % of control | [15] 102 % of control

Source: PubChem BioAssay AID248 (DTP/NCI, 2004)
